Where a SMILES comes first, the peptide text is derived from it.
Legend:
cell cycle (G2/M, subG1) = experiment: FACS cell cycle analysis after cell cycle synchronization; type: cell-based
Source text: The growth inhibitory and cell death-inducing efficacy of ACP52C was confirmed by FACS analysis by treating cells with ACPS2C after synchronizing the cell cycle to the G1/S phase through a double thymidine block method.

[1] = Degradation in mouse blood samples after tail vein injection, HPLC; type: in vivo
Protocol: (§2) The ACP52C half-life in the solution containing serum was analyzed by HPLC (model: UHPLC DIONEX Ultimate 3000; Flow=1.000 ml/min) after incubation of ACP52C in the solution containing 10% serum for various times and then removing serum proteins with Centricon (Mw10,000) before HPLC analysis. […] Meanwhile, after injecting ACP52C into the mouse via tail vein, blood samples were extracted over time and the degree of ACP52C degradation in the blood samples was analyzed by HPLC.

[2] = tested on: A549 cell line in which MDM2 overexpression is chronically induced; experiment: MTT assay in A549 cell line with chronically induced MDM2 overexpression; type: cell-based; settings: doxycycline for 3 weeks, MDM2p90 overexpressed
Source text: (§1) Since MDM2p60 is known to be a protein in which the C-terminal region of MDM2p90 comprising sites (S386, S395, and S407) phosphorylated by ATM is deleted, it was speculated that the MDM2 degradation would not be properly regulated by ACP52C treatment (FIG. 29, FIGS. 30a to 30c).

[3] = ELISA for antibody formation in sera of injected rabbits (immunogenicity); settings: rabbit, in vivo
Source text: To verify this, immunogenicity of ACP52CG and ACP52CK was directly tested in the process of deriving the final new drug candidate. Since the final candidate material might be a C-16 palmitoyl acid-conjugated ACP52C peptide, which is not different with ACP52CG and ACP52CK in terms of chemical composition, it was decided to analyze whether antibodies were formed on ACP52CG and ACP52CK. […] Therefore, it was concluded that the final candidate material (ACP52CGK) would also not show immunogenicity in the human body (FIG. 21).

[4] = Preliminary repeated toxicity test of ACP52C; type: in vivo, mouse; settings: 100 mg/kg and 1000 mg/kg repeatedly administered twice
Protocol: A repeated toxicity test for the in vivo administration of ACP52CGK was conducted using female and male mice. […] As a full-scale experiment, after intravenous infusion of ACP52CGK for 28 days at 3-day intervals into the solvent group and high-dose group (100 mg/Kg) of 6 males and females each, the weight change, drinking water intake, and main histological analysis of organs, organ weight, hematological tests and blood biochemical tests were analyzed.

[5] = tested on: lung cancer cell lines (A549, PC9, KCL22); experiment: Immunoblot of CP2c pathway proteins in lung cancer cell lines treated with ACP52C; type: cell-based
Source text: as §1

[6] = tested on: CHK1/2, CDC25c, CDK1, cyclin B, caspases; experiment: Expression of cell cycle and apoptosis marker proteins after ACP52C treatment; type: cell-based
[7] = tested on: various cancer cell lines; experiment: Anticancer effect of ACP52C in various carcinomas (GI50, FIG. 1); type: cell-based
Source text: FIG. 1 illustrates GI50 values dependent upon ACP52C treatment in various cancer cell lines.
The selected peptide binds to CP2c and inhibits the formation of a transcription factor complex including CP2c (CP2c homotetramer and CP2c/CP2b/PIAS1 heterohexamer), thereby indirectly interfering with DNA binding of CP2c.

[8] = Half-life in solution containing 10% serum by HPLC; type: in vitro ADME; settings: HPLC after removing serum proteins
Protocol: as §2

[9] = mouse, in vivo
Protocol: To analyze the in vivo half-life of ACP52CGK, Cy5-labeled ACP52CGK was injected into the tail vein of the mouse, and then the fluorescence intensity remaining in the mouse body was measured over time by live imaging process.

[10] = ACP52C-induced G2/M phase arrest

**Q.** What does the source list for `CC(=O)N[C@@H](CC(N)=O)C(=O)N[C@@H](Cc1ccc(O)cc1)C(=O)N1CCC[C@H]1C(=O)N[C@@H](CCC(N)=O)C(=O)N[C@@H](CCCNC(=N)N)C(=O)N1CCC[C@H]1C(=O)N[C@@H](CS)C(=O)N[C@@H](CCCNC(=N)N)C(=O)NCC(=O)N[C@@H](CC(=O)O)C(=O)N[C@@H](CCCCN)C(=O)NCC(=O)N1CCC[C@H]1C(=O)N[C@@H](CC(=O)O)C(=O)N[C@@H](CS)C(N)=O` [ACP52C] (Ac-NYPQRPCRGDKGPDC-NH2)?
**A.** cell cycle effect (FACS) (cell cycle (G2/M, subG1); cell line synchronized to G2/M phase with thymidine/nocodazole): the cell cycle was arrested at the subG1 phase and cell death was induced; cell cycle effect (FACS) (cell cycle (G2/M, subG1); cells synchronized to G1/S phase by double thymidine block): cell cycle arrest at the G2/M phase; half-life in mouse blood [1]: about 2 hours; induction of cell death [2]: cell death was induced from the second week; immune response of sera from rabbits injected with ACP52CG and ACP52CK three times (ELISA) [3]: did not induce immune responses; liver toxicity or adverse effect on major organs [4]: any liver toxicity or adverse effect on major organs was not observed; survival [4]: all the mice survived; expression of MDM2 (p90 and p60) [5]: no decrease in the expression; expression of YY1 [5]: decreased; expression of p53, p63 and p73 [5]: did not show any change; cell death induction mechanism [6]: apoptosis via activation of caspases; expression of CDC25c, CDK1, and cyclin B proteins [6, 10]: decreased expression of CDC25c, CDK1, and cyclin B proteins; expression of CHK1/2 protein [6, 10]: increased expression of CHK1/2 protein; growth inhibition and cell death efficacy [7]: cancer cell-specific growth inhibition and cell death efficacy; degradation in solution containing 10% serum [8]: not degraded at all until 24 hours; presence in cancer tissues after injection [9]: observed in cancer tissues even 5 days after injection
